Key:
Male Swiss Webster mice [1] = experiment: Hot-plate test (thermal stimulus), licking latency; type: in vivo
Procedure: The first experiment was the hot-plate test.
Male Swiss Webster mice weighing between 22 and 30 g were used.
The test was carried out according to O'Callaghan and Holtzman in J. Pharmacol. Exp. Ther. 197: 533-537, 1976.
According to this test, a stainless steel container is to be placed in a bain-marie at a temperature of 52.5° C.
The mouse was removed from the hot plate immediately upon the first sign of painful stimulus. The maximum latency time registered on the hot plate was 45 seconds.
The values of analgesia were determined at 15 minute-intervals.

Male Swiss Webster mice [2] = experiment: Hole board test (spontaneous motility, exploratory activity); type: in vivo; details: 14-day sub-chronic treatment SC 100 mg/kg BID; 5 minutes on board
Procedure: In the hole board test, the […] movements were recorded by two separate photocell systems, which recorded both the movements on the board (spontaneous motility) and how many times the mouse put its head into the holes on the surface (exploratory activity).
The mice were placed on the board one at a time and left free to explore both the surface and the holes for 5 minutes.

Male Swiss Webster mice [3] = experiment: Kainic acid-induced hyperalgesia (hot plate); type: in vivo
Procedure: According to this test, the hyperalgesia—determined in the mice through the hot plate test—is induced by a solution of kainic acid (20 mg/kg, IP).

Male Swiss Webster mice [4] = experiment: Hyperalgesia induced by morphine withdrawal syndrome (hot plate)

## CC(=O)O[C@H](CC(=O)[O-])C[N+](C)(C)C [Acetyl L-carnitine, acetyl L-carnitine]
Male Swiss Webster mice [1]; 3 mg/ml in drinking water, after 7 days treatment
  Hot plate Licking latency: 17.8 ± 2.3 s
Male Swiss Webster mice [1]; 3 mg/ml in drinking water, after 14 days treatment
  Hot plate Licking latency: 18.8 ± 2.5 s
Male Swiss Webster mice [1]; 3 mg/ml in drinking water, before treatment
  Hot plate Licking latency: 13.8 ± 0.8 s
Male Swiss Webster mice [1]; 30 mg/kg SC, acute and 30 mg/kg BID SC for 7 days
  analgesic effect in hot-plate test: had no analgesic effect
Male Swiss Webster mice [1]; 100 mg/kg BID SC for 7 days
  antinociceptive effect in hot-plate test: statistically significant antinociceptive effect
Male Swiss Webster mice [1]; 100 mg/kg BID administered for 14 days
  antinociceptive effect in hot-plate test: the test failed to be statistically significant
Male Swiss Webster mice [1]; 1-8 hours from one single administration of 100 mg/kg SC
  pain threshold in hot-plate test: did not affect the pain threshold
Male Swiss Webster mice [1]; 7-day sub-chronic treatment SC 30 mg/kg BID, 15 min after treatment
  Hot plate Licking latency: 16.3 ± 2.1 s
Male Swiss Webster mice [1]; 7-day sub-chronic treatment SC 30 mg/kg BID, 30 min after treatment
  Hot plate Licking latency: 17.3 ± 1.9 s
Male Swiss Webster mice [1]; 7-day sub-chronic treatment SC 30 mg/kg BID, 45 min after treatment
  Hot plate Licking latency: 15.2 ± 1.5 s
Male Swiss Webster mice [1]; 7-day sub-chronic treatment SC 30 mg/kg BID, before treatment
  Hot plate Licking latency: 15.8 ± 1.3 s
Male Swiss Webster mice [1]; 7-day sub-chronic treatment SC 100 mg/kg BID, 15 min after treatment
  Hot plate Licking latency: 22.1 ± 1.8^ sec
Male Swiss Webster mice [1]; 7-day sub-chronic treatment SC 100 mg/kg BID, 30 min after treatment
  Hot plate Licking latency: 22.5 ± 1.9^ sec
Male Swiss Webster mice [1]; 7-day sub-chronic treatment SC 100 mg/kg BID, 45 min after treatment
  Hot plate Licking latency: 22.2 ± 1.7^ sec
Male Swiss Webster mice [1]; 7-day sub-chronic treatment SC 100 mg/kg BID, before treatment
  Hot plate Licking latency: 21.8 ± 1.1^ sec
Male Swiss Webster mice [1]; 14-day sub-chronic treatment SC 100 mg/kg BID, 15 min after treatment
  Hot plate Licking latency: 22.1 ± 2.7 s
Male Swiss Webster mice [1]; 14-day sub-chronic treatment SC 100 mg/kg BID, 30 min after treatment
  Hot plate Licking latency: 22.5 ± 2.1 s
Male Swiss Webster mice [1]; 14-day sub-chronic treatment SC 100 mg/kg BID, 45 min after treatment
  Hot plate Licking latency: 23.4 ± 2.9 s
Male Swiss Webster mice [1]; 14-day sub-chronic treatment SC 100 mg/kg BID, before treatment
  Hot plate Licking latency: 22.4 ± 1.4 s
Male Swiss Webster mice [1]; 7 days after the end of the 14-day-treatment 100 mg/kg BID, 15 min after treatment
  Hot plate Licking latency: 21.1 ± 1.9^ sec
Male Swiss Webster mice [1]; 7 days after the end of the 14-day-treatment 100 mg/kg BID, 30 min after treatment
  Hot plate Licking latency: 18.5 ± 1.8 s
Male Swiss Webster mice [1]; 7 days after the end of the 14-day-treatment 100 mg/kg BID, 45 min after treatment
  Hot plate Licking latency: 19.0 ± 2.3 s
Male Swiss Webster mice [1]; 7 days after the end of the 14-day-treatment 100 mg/kg BID, before treatment
  Hot plate Licking latency: 19.2 ± 1.6^ sec
Male Swiss Webster mice [1]; 7 days after the last 14 day-series of injections, 100 mg/kg BID SC
  antinociceptive action in hot-plate test: persisted even 7 days after the last 14 day-series of injections
Male Swiss Webster mice [1]; Acute SC treatment 100 mg/kg, 15 min after treatment
  Hot plate Licking latency: 17.3 ± 1.7 s
Male Swiss Webster mice [1]; Acute SC treatment 100 mg/kg, 30 min after treatment
  Hot plate Licking latency: 16.8 ± 1.2 s
Male Swiss Webster mice [1]; Acute SC treatment 100 mg/kg, 45 min after treatment
  Hot plate Licking latency: 15.2 ± 1.7 s
Male Swiss Webster mice [1]; Acute SC treatment 100 mg/kg, before treatment
  Hot plate Licking latency: 13.9 ± 0.7 s
Male Swiss Webster mice [1]; SC acute treatment 30 mg/kg, 15 min after treatment
  Hot plate Licking latency: 15.8 ± 1.8 s
Male Swiss Webster mice [1]; SC acute treatment 30 mg/kg, 30 min after treatment
  Hot plate Licking latency: 16.5 ± 2.0 s
Male Swiss Webster mice [1]; SC acute treatment 30 mg/kg, 45 min after treatment
  Hot plate Licking latency: 15.0 ± 2.1 s
Male Swiss Webster mice [1]; SC acute treatment 30 mg/kg, before treatment
  Hot plate Licking latency: 14.2 ± 0.9 s
Male Swiss Webster mice [1]; acute SC administration 100 mg/kg
  protective effect in hot-plate test: did not exert any protective effect
Male Swiss Webster mice [1]; single SC treatment 100 mg/kg, 1 h after treatment
  Hot plate Licking latency: 15.8 ± 2.2 s
Male Swiss Webster mice [1]; single SC treatment 100 mg/kg, 2 h after treatment
  Hot plate Licking latency: 14.7 ± 1.5 s
Male Swiss Webster mice [1]; single SC treatment 100 mg/kg, 3 h after treatment
  Hot plate Licking latency: 15.6 ± 1.9 s
Male Swiss Webster mice [1]; single SC treatment 100 mg/kg, 4 h after treatment
  Hot plate Licking latency: 14.1 ± 2.0 s
Male Swiss Webster mice [1]; single SC treatment 100 mg/kg, 6 h after treatment
  Hot plate Licking latency: 15.2 ± 1.9 s
Male Swiss Webster mice [1]; single SC treatment 100 mg/kg, 8 h after treatment
  Hot plate Licking latency: 14.9 ± 1.6 s
Male Swiss Webster mice [1]; single SC treatment 100 mg/kg, before treatment
  Hot plate Licking latency: 14.5 ± 0.9 s
Male Swiss Webster mice [1]; solution 3 mg/ml in bottle for 7 and 14 days
  pain threshold in hot-plate test: no increase in the pain threshold was observed
Male Swiss Webster mice [2]
  EXPLORATORY ACTIVITY No. of movements: 52.3 ± 6.5
  LOCOMOTOR ACTIVITY No. of explorations: 24.0 ± 5.1
Male Swiss Webster mice [3]; 7-day repeated administration started 48 hours after kainic acid 20 mg/kg IP (FIG. 6)
  reversal of kainic acid-induced hyperalgesia: capable to revert the hyperalgesia
Male Swiss Webster mice [3]; single administration (FIG. 6bis)
  reversal of kainic acid-induced hyperalgesia: no anti-hyperalgesic effect
Male Swiss Webster mice [4]; one single administration, 5 hours and 30 minutes from replacement of morphine with water (FIG. 5bis)
  reversal of hyperalgesia induced by morphine withdrawal syndrome: not after one single administration
Male Swiss Webster mice [4]; repeated treatment 100 mg/kg BID, IP or SC for 7 days (FIG. 5)
  reversal of hyperalgesia induced by morphine withdrawal syndrome: capable of reverting the hyperalgesia

Source: patent US20090062388A1, “Use of acetyl L-carnitine for the preparation of a medication for the preventive therapy for pain” (Sigma-Tau Industrie Farmaceutiche Riunite S.p.A., priority 2001, published 2009)
